Data published in ChEMBL document CHEMBL1141537, “Design and synthesis of dihydroindazolo[5,4-a]pyrrolo[3,4-c]carbazole oximes as potent dual inhibitors of TIE-2 and VEGF-R2 receptor tyrosine kinases” (Bioorg Med Chem Lett, 2008).

Columns and labels:
Angiopoietin-1 receptor = Angiopoietin-1 receptor (Homo sapiens, UniProt Q02763); experiment: Inhibition of human recombinant TIE2 by HTRF assay
A-375 [1] = experiment: Antitumor activity against human A375 cells xenografted mouse assessed as tumor growth inhibition at 10 mg/kg, po bid relative to control; type: functional; design: scale not given: the % may be the effect or the level left
[2] = AUC (0 to infinity) in rat at 5 mg/kg, po; type: ADME, organism-based; design: time infinity, dose 5 mg/kg, route oral; details: plasma
[3] = Oral bioavailability in rat at 5 mg/kg; type: ADME, organism-based; details: in vivo
[4] = biological target: Vascular endothelial growth factor receptor 1 (Homo sapiens, UniProt P17948); experiment: Inhibition of VEGFR1
[5] = Volume of distribution in rat at 1 mg/kg, iv; type: ADME, organism-based; design: dose 1 mg/kg, route intravenous; details: in vivo
Insulin receptor = Insulin receptor (Homo sapiens, UniProt P06213); experiment: Inhibition of IR
Sequence of Insulin receptor (P06213 28-758 limits assumed): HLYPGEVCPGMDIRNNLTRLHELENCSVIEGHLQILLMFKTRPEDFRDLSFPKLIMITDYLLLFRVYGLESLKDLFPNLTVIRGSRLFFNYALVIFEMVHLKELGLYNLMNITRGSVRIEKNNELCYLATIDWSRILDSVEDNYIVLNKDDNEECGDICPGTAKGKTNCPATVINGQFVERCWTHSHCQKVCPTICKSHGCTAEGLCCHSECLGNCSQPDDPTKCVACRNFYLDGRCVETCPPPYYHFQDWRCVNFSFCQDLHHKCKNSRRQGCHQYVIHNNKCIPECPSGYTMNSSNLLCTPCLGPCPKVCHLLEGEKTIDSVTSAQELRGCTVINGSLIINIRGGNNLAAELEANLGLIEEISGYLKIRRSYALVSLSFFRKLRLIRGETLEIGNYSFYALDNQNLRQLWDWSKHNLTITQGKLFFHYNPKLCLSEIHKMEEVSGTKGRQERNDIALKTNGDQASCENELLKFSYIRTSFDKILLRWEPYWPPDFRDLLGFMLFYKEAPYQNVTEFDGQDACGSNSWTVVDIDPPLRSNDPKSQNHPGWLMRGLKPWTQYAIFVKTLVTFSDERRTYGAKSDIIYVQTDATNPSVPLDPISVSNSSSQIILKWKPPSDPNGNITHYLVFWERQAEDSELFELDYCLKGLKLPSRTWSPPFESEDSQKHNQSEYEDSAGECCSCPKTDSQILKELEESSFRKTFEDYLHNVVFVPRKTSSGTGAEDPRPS
Sequence of Insulin receptor (P06213 763-1382 limits assumed): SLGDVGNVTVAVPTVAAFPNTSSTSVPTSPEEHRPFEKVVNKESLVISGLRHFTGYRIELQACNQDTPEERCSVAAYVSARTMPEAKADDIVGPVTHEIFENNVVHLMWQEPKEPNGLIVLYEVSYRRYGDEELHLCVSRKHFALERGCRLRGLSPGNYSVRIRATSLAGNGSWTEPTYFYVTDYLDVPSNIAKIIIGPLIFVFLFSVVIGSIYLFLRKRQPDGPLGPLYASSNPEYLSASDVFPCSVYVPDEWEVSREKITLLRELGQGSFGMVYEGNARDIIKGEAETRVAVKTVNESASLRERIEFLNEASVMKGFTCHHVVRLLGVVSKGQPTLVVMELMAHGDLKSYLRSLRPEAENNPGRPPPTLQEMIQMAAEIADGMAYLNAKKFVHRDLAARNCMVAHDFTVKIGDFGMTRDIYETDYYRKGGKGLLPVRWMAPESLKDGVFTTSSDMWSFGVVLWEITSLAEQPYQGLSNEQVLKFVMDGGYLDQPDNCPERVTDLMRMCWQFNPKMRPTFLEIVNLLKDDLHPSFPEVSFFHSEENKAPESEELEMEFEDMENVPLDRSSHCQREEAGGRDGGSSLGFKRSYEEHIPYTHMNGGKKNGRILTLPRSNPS

[6] = biological target: Epidermal growth factor receptor (Homo sapiens, UniProt P00533); experiment: Inhibition of EGFR
Sequence of Epidermal growth factor receptor (P00533 whole entry): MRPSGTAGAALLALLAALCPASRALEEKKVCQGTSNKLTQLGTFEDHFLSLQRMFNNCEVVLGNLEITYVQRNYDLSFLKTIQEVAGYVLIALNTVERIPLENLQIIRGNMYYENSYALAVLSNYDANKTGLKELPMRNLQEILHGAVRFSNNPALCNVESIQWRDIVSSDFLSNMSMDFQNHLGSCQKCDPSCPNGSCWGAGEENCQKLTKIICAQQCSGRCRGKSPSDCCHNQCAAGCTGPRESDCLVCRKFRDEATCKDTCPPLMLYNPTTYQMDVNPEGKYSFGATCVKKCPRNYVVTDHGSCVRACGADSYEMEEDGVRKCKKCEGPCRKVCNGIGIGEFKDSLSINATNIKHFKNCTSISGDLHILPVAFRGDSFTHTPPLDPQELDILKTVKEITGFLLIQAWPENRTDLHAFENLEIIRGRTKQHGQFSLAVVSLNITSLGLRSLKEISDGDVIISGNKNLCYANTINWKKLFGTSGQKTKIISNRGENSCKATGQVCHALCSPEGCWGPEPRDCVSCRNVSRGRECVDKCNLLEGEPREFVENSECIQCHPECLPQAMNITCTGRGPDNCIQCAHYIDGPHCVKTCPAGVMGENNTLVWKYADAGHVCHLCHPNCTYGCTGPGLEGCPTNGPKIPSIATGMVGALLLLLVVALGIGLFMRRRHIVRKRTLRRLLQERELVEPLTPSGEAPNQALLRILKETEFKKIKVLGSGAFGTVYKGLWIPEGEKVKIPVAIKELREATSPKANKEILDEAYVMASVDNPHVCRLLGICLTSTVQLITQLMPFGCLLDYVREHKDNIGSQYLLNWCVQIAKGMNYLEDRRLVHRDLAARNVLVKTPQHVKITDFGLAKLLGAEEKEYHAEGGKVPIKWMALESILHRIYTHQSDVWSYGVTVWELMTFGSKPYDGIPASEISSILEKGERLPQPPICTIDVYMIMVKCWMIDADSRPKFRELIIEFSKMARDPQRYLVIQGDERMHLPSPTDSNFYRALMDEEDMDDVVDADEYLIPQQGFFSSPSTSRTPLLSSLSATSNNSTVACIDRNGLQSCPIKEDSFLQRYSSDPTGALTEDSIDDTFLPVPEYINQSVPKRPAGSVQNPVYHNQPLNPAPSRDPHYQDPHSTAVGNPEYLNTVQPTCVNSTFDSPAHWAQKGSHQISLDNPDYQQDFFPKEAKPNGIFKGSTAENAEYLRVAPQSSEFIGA

[7] = Cmax in rat at 5 mg/kg, po; type: ADME, organism-based; design: dose 5 mg/kg, route oral; details: in vivo
[8] = biological target: Proto-oncogene tyrosine-protein kinase Src (Homo sapiens, UniProt P12931); experiment: Inhibition of c-src
Sequence of Proto-oncogene tyrosine-protein kinase Src (P12931 2-536 limits assumed): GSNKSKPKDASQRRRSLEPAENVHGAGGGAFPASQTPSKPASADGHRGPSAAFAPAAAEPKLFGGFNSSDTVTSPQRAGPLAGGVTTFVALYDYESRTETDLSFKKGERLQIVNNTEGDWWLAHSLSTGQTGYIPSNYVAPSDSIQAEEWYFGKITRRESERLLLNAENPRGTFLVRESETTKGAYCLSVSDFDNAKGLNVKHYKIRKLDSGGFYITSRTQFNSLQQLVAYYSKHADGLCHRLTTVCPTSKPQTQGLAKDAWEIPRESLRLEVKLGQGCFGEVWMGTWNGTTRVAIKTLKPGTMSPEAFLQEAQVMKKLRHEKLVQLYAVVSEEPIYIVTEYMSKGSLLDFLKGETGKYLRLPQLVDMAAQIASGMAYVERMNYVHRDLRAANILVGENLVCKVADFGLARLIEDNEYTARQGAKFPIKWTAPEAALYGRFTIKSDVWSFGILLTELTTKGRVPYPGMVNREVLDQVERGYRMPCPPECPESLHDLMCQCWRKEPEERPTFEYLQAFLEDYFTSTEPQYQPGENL

A-375 [9] = experiment: Cytotoxicity against human A375 cells; type: functional, cell-based
HUVEC [10] = experiment: Cytotoxicity against HUVEC cells; type: cell-based; details: human
[11] = Half life in rat at 5 mg/kg, po; type: ADME, organism-based; design: dose 5 mg/kg, route oral; details: in vivo
[12] = AUC (0 to infinity) in rat at 1 mg/kg, iv; type: ADME, organism-based; design: time infinity, dose 1 mg/kg, route intravenous; details: plasma
[13] = Clearance in rat at 1 mg/kg, iv; type: ADME, organism-based; design: dose 1 mg/kg, route intravenous; details: in vivo
[14] = biological target: Vascular endothelial growth factor receptor 2 (Homo sapiens, UniProt P35968); experiment: Inhibition of human recombinant VEGFR2 by HTRF assay
A-375 [15] = experiment: Antitumor activity against human A375 cells xenografted mouse assessed as partial tumor regression at 10 mg/kg, po bid relative to control; type: functional
HUVEC [16] = experiment: Inhibition of VEGF-induced HUVEC cells capillary tube formation relative to control; type: functional, cell-based; details: Homo sapiens
[17] = Half life in rat at 1 mg/kg, iv; type: ADME, organism-based; design: dose 1 mg/kg, route intravenous; details: in vivo
Mus musculus = experiment: Toxicity in A375 cells xenografted mouse melanoma model assessed as mortality; type: organism-based, A-375; details: in vivo
[18] = biological target: Vascular endothelial growth factor receptor 3 (Homo sapiens, UniProt P35916); experiment: Inhibition of VEGFR3
Rattus norvegicus = species: Rattus norvegicus; experiment: Ex vivo antiangiogenic activity in rat aortic ring explant assessed as inhibition of microvessel outgrowth after 10 days; type: functional; details: Aorta, 240 h

Sequence of Angiopoietin-1 receptor (Q02763 whole entry): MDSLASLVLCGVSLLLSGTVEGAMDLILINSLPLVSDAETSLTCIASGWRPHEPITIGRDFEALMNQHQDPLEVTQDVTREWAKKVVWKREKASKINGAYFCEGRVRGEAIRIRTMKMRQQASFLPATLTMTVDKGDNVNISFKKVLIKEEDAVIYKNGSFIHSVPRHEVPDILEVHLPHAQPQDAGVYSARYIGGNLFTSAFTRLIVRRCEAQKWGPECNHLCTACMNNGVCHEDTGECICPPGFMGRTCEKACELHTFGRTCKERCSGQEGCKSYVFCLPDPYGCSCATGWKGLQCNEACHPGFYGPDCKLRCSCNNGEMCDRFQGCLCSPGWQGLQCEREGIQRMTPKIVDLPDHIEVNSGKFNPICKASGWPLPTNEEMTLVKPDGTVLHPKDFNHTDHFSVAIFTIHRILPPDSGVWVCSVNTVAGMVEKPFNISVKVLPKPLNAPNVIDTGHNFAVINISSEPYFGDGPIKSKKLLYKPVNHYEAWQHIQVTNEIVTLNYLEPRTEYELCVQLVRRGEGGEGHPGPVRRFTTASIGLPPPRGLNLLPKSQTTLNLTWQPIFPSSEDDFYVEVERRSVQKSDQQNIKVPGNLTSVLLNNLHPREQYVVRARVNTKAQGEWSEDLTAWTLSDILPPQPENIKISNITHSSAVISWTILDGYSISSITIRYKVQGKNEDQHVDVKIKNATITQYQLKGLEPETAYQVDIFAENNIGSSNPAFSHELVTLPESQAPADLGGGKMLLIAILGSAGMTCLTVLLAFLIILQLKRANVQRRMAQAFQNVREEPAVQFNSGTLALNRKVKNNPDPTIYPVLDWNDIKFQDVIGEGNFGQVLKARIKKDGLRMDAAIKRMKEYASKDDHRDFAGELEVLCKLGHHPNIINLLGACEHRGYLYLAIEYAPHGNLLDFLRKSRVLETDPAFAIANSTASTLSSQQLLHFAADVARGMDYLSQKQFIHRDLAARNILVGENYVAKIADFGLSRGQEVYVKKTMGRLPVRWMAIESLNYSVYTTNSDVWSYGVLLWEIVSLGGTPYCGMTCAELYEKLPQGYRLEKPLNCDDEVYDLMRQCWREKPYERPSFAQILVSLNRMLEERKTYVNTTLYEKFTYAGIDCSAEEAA

C/C(=N\OC(C)(C)C)c1ccc2[nH]c3c4c(c5c(c3c2c1)CNC5=O)-c1cn(C)nc1CC4
IC50 (Angiopoietin-1 receptor): 93 nM

CO/N=C(\C)c1ccc2c(c1)c1c3c(c4c(c1n2C)CCc1nn(C)cc1-4)C(=O)NC3
IC50 (Angiopoietin-1 receptor): 347 nM

CCn1c2ccc(/C(C)=N/OC)cc2c2c3c(c4c(c21)CCc1nn(C)cc1-4)C(=O)NC3
IC50 (Angiopoietin-1 receptor): 300 nM

CO/N=C/c1ccc2[nH]c3c4c(c5c(c3c2c1)CNC5=O)-c1cn(C)nc1CC4
IC50 (Angiopoietin-1 receptor): 148 nM

CCO/N=C/c1ccc2[nH]c3c4c(c5c(c3c2c1)CNC5=O)-c1cn(C)nc1CC4
IC50 (Angiopoietin-1 receptor): 264 nM

CO/N=C(\C)c1ccc2[nH]c3c4c(c5c(c3c2c1)CNC5=O)-c1cn(C)nc1CC4
IC50 (Angiopoietin-1 receptor): 71 nM

CO/N=C(/c1ccc2[nH]c3c4c(c5c(c3c2c1)CNC5=O)-c1cn(C)nc1CC4)C(C)C
IC50 (Angiopoietin-1 receptor): 264 nM

CCO/N=C(/c1ccc2[nH]c3c4c(c5c(c3c2c1)CNC5=O)-c1cn(C)nc1CC4)C(C)C
IC50 (Angiopoietin-1 receptor): 92 nM

C/C(=N\OC(C)C)c1ccc2[nH]c3c4c(c5c(c3c2c1)CNC5=O)-c1cn(C)nc1CC4
IC50 (Angiopoietin-1 receptor): 28 nM

CCCn1c2ccc(/C(C)=N/OC)cc2c2c3c(c4c(c21)CCc1nn(C)cc1-4)C(=O)NC3
IC50 (Angiopoietin-1 receptor): 30 nM

CO/N=C(\C)c1ccc2c(c1)c1c3c(c4c(c1n2CC(C)C)CCc1nn(C)cc1-4)C(=O)NC3
Activity (A-375 [1]): 80% | AUC(0-inf) [2]: 9060 ng·h/mL | bioavailability [3]: 66% | IC50 [4]: 8 nM | Vd [5]: 0.8 L/kg | IC50 (Insulin receptor): > 1000 nM | IC50 [6]: > 1000 nM | Cmax [7]: 874 ng/mL | IC50 [8]: 43 nM | EC50 (A-375 [9]): 70 nM | Activity (HUVEC [10]): Non-toxic | IC50 (Angiopoietin-1 receptor): 30 nM | half-life [11]: 6.5 h | AUC(0-inf) [12]: 2760 ng·h/mL | clearance [13]: 6.5 mL/min/kg | IC50 [14]: 7 nM | Activity (A-375 [15]): 38% | EC50 (HUVEC [16]): 1 nM | half-life [17]: 1.4 h | Activity (Mus musculus): Non-toxic | IC50 [18]: 10 nM | EC50 (Rattus norvegicus): 3 nM

C/C(=N\OCC(C)C)c1ccc2c(c1)c1c3c(c4c(c1n2CC(C)C)CCc1nn(C)cc1-4)C(=O)NC3
IC50 (Angiopoietin-1 receptor): 23 nM

C/C(=N\OCC(C)C)c1ccc2[nH]c3c4c(c5c(c3c2c1)CNC5=O)-c1cn(C)nc1CC4
IC50 (Angiopoietin-1 receptor): 10 nM

C/C(=N\OCC(C)C)c1ccc2c(c1)c1c3c(c4c(c1n2C(C)C)CCc1nn(C)cc1-4)C(=O)NC3
IC50 (Angiopoietin-1 receptor): 46 nM

Cn1cc2c(n1)CCc1c-2c2c(c3c1[nH]c1ccccc13)CNC2=O
IC50 (Angiopoietin-1 receptor): 1300 nM

COc1ccc(-c2oc3ncnc(N)c3c2-c2ccc(NC(=O)Nc3c(F)cccc3C(F)(F)F)cc2)cc1
IC50 (Angiopoietin-1 receptor): 2 nM

CO/N=C(\C)c1ccc2c(c1)c1c3c(c4c(c1n2C(C)C)CCc1nn(C)cc1-4)C(=O)NC3
IC50 (Angiopoietin-1 receptor): 97 nM

CCO/N=C(\C)c1ccc2c(c1)c1c3c(c4c(c1n2C(C)C)CCc1nn(C)cc1-4)C(=O)NC3
AUC(0-inf) [2]: 3610 ng·h/mL | bioavailability [3]: 31% | Vd [5]: 1.3 L/kg | IC50 (Insulin receptor): > 1000 nM | IC50 [6]: > 1000 nM | Cmax [7]: 637 ng/mL | IC50 [8]: 14 nM | IC50 (Angiopoietin-1 receptor): 26 nM | half-life [11]: 3.2 h | AUC(0-inf) [12]: 2300 ng·h/mL | clearance [13]: 7.4 mL/min/kg | IC50 [14]: 4 nM | half-life [17]: 2 h

CCn1c2ccc(/C(C)=N/OCC(C)C)cc2c2c3c(c4c(c21)CCc1nn(C)cc1-4)C(=O)NC3
IC50 (Angiopoietin-1 receptor): 45 nM

CCCCn1c2ccc(/C(C)=N/OC)cc2c2c3c(c4c(c21)CCc1nn(C)cc1-4)C(=O)NC3
IC50 (Angiopoietin-1 receptor): 108 nM

C/C(=N\OC(C)C)c1ccc2c(c1)c1c3c(c4c(c1n2CC(C)C)CCc1nn(C)cc1-4)C(=O)NC3
IC50 (Angiopoietin-1 receptor): 52 nM

C/C(=N\O)c1ccc2[nH]c3c4c(c5c(c3c2c1)CNC5=O)-c1cn(C)nc1CC4
IC50 (Angiopoietin-1 receptor): 44 nM

CCO/N=C(\C)c1ccc2[nH]c3c4c(c5c(c3c2c1)CNC5=O)-c1cn(C)nc1CC4
IC50 (Angiopoietin-1 receptor): 23 nM

CCO/N=C(\C)c1ccc2c(c1)c1c3c(c4c(c1n2CC(C)C)CCc1nn(C)cc1-4)C(=O)NC3
IC50 (Angiopoietin-1 receptor): 25 nM

C/C(=N\OC(C)C)c1ccc2c(c1)c1c3c(c4c(c1n2C(C)C)CCc1nn(C)cc1-4)C(=O)NC3
IC50 (Angiopoietin-1 receptor): 66 nM
